In ChEMBL document CHEMBL1148852, “Glucosamine sulfate promotes osteoblastic differentiation of MG-63 cells via anti-inflammatory effect” (2007):
The source made the active and inactive calls. The calls are words filed in the database; no cut-off is given here.

Experiments:
MG-63 [1] = experiment: Effect on osteocalcin secretion in human MG63 cells after 4 days; assay type: functional, cell-based
MG-63 [2] = experiment: Increase in alkaline phosphatase activity in human MG63 cells after 24 hrs; assay type: functional, cell-based
MG-63 [3] = experiment: Increase of mineralization in human MG63 cells after 7 days; assay type: functional, cell-based
MG-63 [4] = experiment: Increase in alkaline phosphatase activity in human MG63 cells at 5 ug/mL after 24 hrs; assay type: functional, cell-based
MG-63 [5] = experiment: Cytotoxicity against human MG63 cells up to 1000 ug/ml after 48 hrs by MTT assay; assay type: functional, cell-based
RAW [6] = experiment: Reduction of lipopolysaccharide stimulated IL1-beta synthesis in mouse RAW 264.7 cells; assay type: functional, cell-based
MG-63 [7] = experiment: Increase of collagen synthesis in human MG63 cells at 10 ug/mL relative to glucosamine; assay type: functional
MG-63 [8] = experiment: Increase of collagen synthesis in human MG63 cells after 7 days; assay type: functional, cell-based
RAW [9] = experiment: Reduction of lipopolysaccharide stimulated PGE2 synthesis in mouse RAW 264.7 cells at 10 ug/mL; assay type: functional, cell-based
MG-63 [10] = experiment: Increase in alkaline phosphatase activity in human MG63 cells at 1000 ug/mL after 24 hrs; assay type: functional, cell-based
RAW [11] = experiment: Inhibition of lipopolysaccharide stimulated TNFalpha synthesis in mouse RAW 264.7 cells; assay type: functional, cell-based
MG-63 [12] = experiment: Effect on alkaline phosphatase activity in human MG63 cells at 100 ug/mL after 24 hrs; assay type: functional, cell-based

Compound	Activity (MG-63 [1])	Activity (MG-63 [2])	Activity (MG-63 [3])	Activity (MG-63 [4])	Activity (MG-63 [5])	Activity (RAW [6])	Fold change (MG-63 [7])	Activity (MG-63 [8])	Activity (RAW [9])	Activity (MG-63 [10])	Activity (RAW [11])	Activity (MG-63 [12])
N[C@@H]1[C@@H](O)[C@H](O)[C@@H](COS(=O)(=O)O)O[C@H]1O	Dose-dependent effect	Dose-dependent effect	Active	Active	Not toxic	Active	3	Dose-dependent effect	Active	inactive	Active	
N[C@@H]1[C@@H](O)[C@H](O)[C@@H](CO)O[C@H]1O	Dose-dependent effect										Active	inactive
